Assay results: PubChem BioAssay AID330 (DTP/NCI, 2004)
Where “and” joins values, the source holds several entries; their conditions need not be identical. Equal values may be shown once. Inconclusive results and toxic doses are left out. The calls were made as follows: active = survival T/C of 150% or more; inactive = T/C below 125% in these data.

System: P388 leukemia ip, CD2F1 mice, survival T/C
Test: NCI In Vivo Anticancer Drug Screen. Data for tumor model P388 Leukemia (intraperitoneal) in CD2F1 (CDF1) mice
Settings: endpoint: median survival time, higher = longer survival
Outline: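 Mice carrying the transplanted tumor received test compound or vehicle. Survival was recorded in each group, and the value is the treated-group measurement divided by that of the vehicle-treated control group.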

[1] = dose: 60.0 mg/kg/injection, schedule: Q01DX005 (ip), vehicle: saline
[2] = dose: 120.0 mg/kg/injection, schedule: Q01DX005 (ip), vehicle: saline
[3] = dose: 240.0 mg/kg/injection, schedule: Q01DX005 (ip), vehicle: saline
[4] = dose: 50.0 mg/kg/injection, schedule: Q01DX005 (ip), vehicle: Klucel (hydroxypropylcellulose) (HPC)
[5] = dose: 100.0 mg/kg/injection, schedule: Q01DX005 (ip), vehicle: Klucel (hydroxypropylcellulose) (HPC)
[6] = dose: 60.0 mg/kg/injection, schedule: Q01DX005 (ip), vehicle: saline with Tween-80
[7] = dose: 120.0 mg/kg/injection, schedule: Q01DX005 (ip), vehicle: saline with Tween-80
[8] = dose: 240.0 mg/kg/injection, schedule: Q01DX005 (ip), vehicle: saline with Tween-80
[9] = dose: 100.0 mg/kg/injection, schedule: Q04DX003 (ip), vehicle: saline with Tween-80
[10] = dose: 200.0 mg/kg/injection, schedule: Q04DX003 (ip), vehicle: saline with Tween-80
[11] = dose: 400.0 mg/kg/injection, schedule: Q04DX003 (ip), vehicle: saline with Tween-80

Measured: T/C

CCCCCCC(C)OC(=O)OCCOCCOC(=O)OC(C)C(=O)OCCCC (stereo unspecified)
inactive: [1] 100 % of control | [2] 94 % of control | [3] 100 % of control

O=C1C(=O)c2cccnc2-c2ncccc21
inactive: dose: 1.56 mg/kg/injection, schedule: Q01DX005 (ip), vehicle: Klucel (hydroxypropylcellulose) (HPC) 115 % of control | dose: 3.12 mg/kg/injection, schedule: Q01DX005 (ip), vehicle: Klucel (hydroxypropylcellulose) (HPC) 106 % of control | dose: 6.25 mg/kg/injection, schedule: Q01DX005 (ip), vehicle: Klucel (hydroxypropylcellulose) (HPC) 115 % of control

CN(C)c1ccc(-c2cccc[n+]2C)cc1
inactive: dose: 1.5 mg/kg/injection, schedule: Q01DX009 (ip), vehicle: saline 103 % of control | dose: 3.0 mg/kg/injection, schedule: Q01DX009 (ip), vehicle: saline 108 % of control | dose: 6.0 mg/kg/injection, schedule: Q01DX009 (ip), vehicle: saline 109 % of control

Cc1c(N)nc([C@H](CC(N)=O)NC[C@H](N)C(N)=O)nc1C(=O)N[C@H](C(=O)N[C@H](C)[C@@H](O)[C@H](C)C(=O)N[C@H](C(=O)NCCc1nc(-c2nc(C(=O)NCCC[S+](C)C)cs2)cs1)[C@@H](C)O)C(OC1OC(CO)C(O)C(O)C1OC1OC(CO)C(O)C(OC(N)=O)C1O)c1cnc[nH]1 (stereo partly specified)
inactive: dose: 3.13 mg/kg/injection, schedule: Q01DX009 (ip), vehicle: Klucel (hydroxypropylcellulose) (HPC) 121 % of control | dose: 3.5 mg/kg/injection, schedule: Q01DX009 (ip), vehicle: saline 100 % of control | dose: 3.6 mg/kg/injection, schedule: Q01DX009 (ip), vehicle: saline 117 % of control | dose: 4.0 mg/kg/injection, schedule: Q04DX003 (ip), vehicle: saline 115 % of control | dose: 5.3 mg/kg/injection, schedule: Q01DX009 (ip), vehicle: saline 107 % of control and 114 % of control | dose: 6.25 mg/kg/injection, schedule: Q01DX009 (ip), vehicle: Klucel (hydroxypropylcellulose) (HPC) 123 % of control | dose: 8.0 mg/kg/injection, schedule: Q04DX003 (ip), vehicle: saline 122 % of control | dose: 12.0 mg/kg/injection, schedule: Q01DX009 (ip), vehicle: saline 106 % of control and 121 % of control | dose: 12.5 mg/kg/injection, schedule: Q01DX009 (ip), vehicle: Klucel (hydroxypropylcellulose) (HPC) 121 % of control | dose: 16.0 mg/kg/injection, schedule: Q04DX003 (ip), vehicle: saline 121 % of control | dose: 25.0 mg/kg/injection, schedule: Q01DX009 (ip), vehicle: Klucel (hydroxypropylcellulose) (HPC) 94 % of control

S=C=NP1(N=C=S)=NP(N=C=S)(N=C=S)=NP(N=C=S)(N=C=S)=N1 (stereo unspecified)
inactive: [4] 107 % of control | [5] 97 % of control

COc1ccc(C(=O)CCS(=O)(=O)CCC(=O)c2ccc(OC)cc2)cc1
inactive: dose: 100.0 mg/kg/injection, schedule: Q04DX003 (ip), vehicle: saline 93 % of control | dose: 200.0 mg/kg/injection, schedule: Q04DX003 (ip), vehicle: saline 91 % of control | dose: 400.0 mg/kg/injection, schedule: Q04DX003 (ip), vehicle: saline 91 % of control

CCOc1ccccc1NC1=C(Cl)C(=O)c2ccccc2C1=O
inactive: dose: 7.5 mg/kg/injection, schedule: Q01DX005 (ip), vehicle: saline with Tween-80 100 % of control | dose: 15.0 mg/kg/injection, schedule: Q01DX005 (ip), vehicle: saline with Tween-80 94 % of control | dose: 30.0 mg/kg/injection, schedule: Q01DX005 (ip), vehicle: saline with Tween-80 97 % of control | [6] 103 % of control

CCOc1cccc2nncn12
inactive: dose: 100.0 mg/kg/injection, schedule: Q01DX001 (ip), vehicle: saline 102 % of control | dose: 200.0 mg/kg/injection, schedule: Q01DX001 (ip), vehicle: saline 103 % of control

CC(=O)Nc1ccc(S(=O)(=O)Nc2c(-c3ccccc3)[nH]c(C)c2C(C)=O)cc1
inactive: [6] 102 % of control | [7] 102 % of control | [8] 98 % of control

CC1CC(=O)NC(=O)N1 (stereo unspecified)
inactive: dose: 50.0 mg/kg/injection, schedule: Q01DX009 (ip), vehicle: saline with Tween-80 96 % of control | dose: 100.0 mg/kg/injection, schedule: Q01DX009 (ip), vehicle: saline with Tween-80 102 % of control | [9] 97 % of control | dose: 200.0 mg/kg/injection, schedule: Q01DX009 (ip), vehicle: saline with Tween-80 99 % of control | [10] 94 % of control | [11] 103 % of control

O=c1[nH]cnc2cc3cn[nH]c3cc12
inactive: dose: 50.0 mg/kg/injection, schedule: Q01DX005 (ip), vehicle: saline with Tween-80 91 % of control | dose: 100.0 mg/kg/injection, schedule: Q01DX005 (ip), vehicle: saline with Tween-80 96 % of control | dose: 200.0 mg/kg/injection, schedule: Q01DX005 (ip), vehicle: saline with Tween-80 95 % of control

COc1ccccc1NC(=O)c1cc2cc(Br)ccc2cc1O
inactive: [6] 100 % of control | [7] 102 % of control | [8] 108 % of control

CCCCCCCCCCCCCCCCCC(=O)NC[n+]1ccccc1
inactive: dose: 50.0 mg/kg/injection, schedule: Q04DX002 (ip), vehicle: Klucel (hydroxypropylcellulose) (HPC) 96 % of control | dose: 100.0 mg/kg/injection, schedule: Q04DX002 (ip), vehicle: Klucel (hydroxypropylcellulose) (HPC) 87 % of control | dose: 200.0 mg/kg/injection, schedule: Q04DX002 (ip), vehicle: Klucel (hydroxypropylcellulose) (HPC) 91 % of control

COc1cc(CCC(C)=O)ccc1OC(=O)c1c(-c2c(F)cccc2Cl)noc1C
inactive: [4] 91 % of control | [5] 91 % of control | dose: 200.0 mg/kg/injection, schedule: Q01DX005 (ip), vehicle: Klucel (hydroxypropylcellulose) (HPC) 91 % of control

C[C@@H]1C[C@H](C)S(=O)[C@H](C)S1 (stereo partly specified)
inactive: dose: 100.0 mg/kg/injection, schedule: Q04DX002 (ip), vehicle: saline 101 % of control | dose: 200.0 mg/kg/injection, schedule: Q04DX002 (ip), vehicle: saline 102 % of control | dose: 400.0 mg/kg/injection, schedule: Q04DX002 (ip), vehicle: saline 100 % of control

O=[N+]([O-])c1cccc(C2=NON(c3ccccn3)C3C=CC=CN23)c1 (stereo unspecified)
inactive: [6] 94 % of control | [7] 90 % of control | [8] 92 % of control

O=CN1CCN(c2ccc([N+](=O)[O-])c3no[n+]([O-])c23)CC1
inactive: dose: 1.87 mg/kg/injection, schedule: Q01DX009 (ip), vehicle: saline 107 % of control | dose: 1.87 mg/kg/injection, schedule: Q01DX009 (ip), vehicle: suspension in saline 94 % of control | dose: 3.75 mg/kg/injection, schedule: Q01DX009 (ip), vehicle: saline 92 % of control | dose: 3.75 mg/kg/injection, schedule: Q01DX009 (ip), vehicle: suspension in saline 113 % of control | dose: 7.5 mg/kg/injection, schedule: Q01DX009 (ip), vehicle: saline 86 % of control | dose: 7.5 mg/kg/injection, schedule: Q01DX009 (ip), vehicle: suspension in saline 116 % of control | dose: 15.0 mg/kg/injection, schedule: Q01DX009 (ip), vehicle: saline 91 % of control | dose: 15.0 mg/kg/injection, schedule: Q01DX009 (ip), vehicle: suspension in saline 116 % of control

Cc1c(-c2ccc(Cl)cc2)n[nH]c1-c1[nH]nc(-c2ccc(Cl)cc2)c1C
inactive: [6] 105 % of control | [7] 105 % of control | [8] 94 % of control

NC(=O)C1CC(O)CN1C(=O)c1cccnc1 (stereo unspecified)
inactive: [1] 101 % of control | [2] 100 % of control | [3] 93 % of control

COc1cc([N+](=O)[O-])cc(/C=C(\C)C2SC(C)(C)C(C)CN2C)c1O (stereo unspecified)
inactive: [9] 109 % of control | [10] 103 % of control | [11] 100 % of control

CN1CCC/C1=N\S(=O)(=O)/N=C1\CCCN1C
inactive: dose: 50.0 mg/kg/injection, schedule: Q01DX005 (ip), vehicle: saline 92 % of control | dose: 100.0 mg/kg/injection, schedule: Q01DX005 (ip), vehicle: saline 100 % of control | dose: 200.0 mg/kg/injection, schedule: Q01DX005 (ip), vehicle: saline 99 % of control

Cc1cc(NCCc2ccccc2)cc(=O)n1CCc1ccccc1
inactive: dose: 60.0 mg/kg/injection, schedule: Q01DX005 (ip), vehicle: Klucel (hydroxypropylcellulose) (HPC) 97 % of control | dose: 120.0 mg/kg/injection, schedule: Q01DX005 (ip), vehicle: Klucel (hydroxypropylcellulose) (HPC) 100 % of control | dose: 240.0 mg/kg/injection, schedule: Q01DX005 (ip), vehicle: Klucel (hydroxypropylcellulose) (HPC) 94 % of control
